Literature values in PubChem BioAssay AID1259410 (Chemical Carcinogenesis Research Information System (CCRIS), 2018).

Test system: rodent tumor promotion studies, tumor incidence
Experiment: CCRIS tumor promotion studies
Conditions: Route [Carcinogen]: DERMAL, Route [Promoter]: DERMAL, Species: MOUSE

CCCCCCCCCCCCCC(=O)O[C@@H]1[C@@H](C)[C@@]2(O)[C@@H](C=C(CO)C[C@]3(O)C(=O)C(C)=C[C@@H]23)[C@@H]2C(C)(C)[C@]12OC(C)=O
outcome (Carcinogen: 15,16-DIHYDRO-11-METHYLCYCLOPENTA[A]PHENANTHREN-17-ONE, 892-17-1, Doses [Carcinogen]: 1632 NMOL IN 100 µL TOLUENE ONCE, Doses [Promoter]: 0, 2 UG IN 50 µL ACETONE 2/WK FOR 19 WK BEGINNING 1 WK POST CARCINOGEN TREATMENT (STUDY DURATION: 20 WK), Strain/Sex: SKH/HR-1/MALE): skin: papilloma | outcome (Carcinogen: (+/-)-R,11-T-12-DIHYDROXY-T-13,14-EPOXY-11,12,13,14-TETRAHYDRODIBENZO[A,L]PYRENE, 159812-26-7, Doses [Carcinogen]: 1.33, 4, 12 NMOL IN 100 ML ACETONE ONCE, Doses [Carcinogen]: 1.33, 4, 12 NMOL IN 100 ML ACETONE ONCE, Doses [Promoter]: 1.62 NMOL IN 100 ML ACETONE 2/WK FOR 28 WK BEGINNING 1 WK POST CARCINOGEN DOSE (STUDY DURATION: 30 WK), Strain/Sex: SENCAR/FEMALE): skin: tumor | outcome (Carcinogen: (+/-)-R-11,T-12-DIHYDROXY-C-13,14-EPOXY-11,12,13,14-TETRAHYDRODIBENZO[A,L]PYRENE, 159812-27-8, Doses [Carcinogen]: 1.33, 4, 12 NMOL IN 100 ML ACETONE ONCE, Doses [Carcinogen]: 1.33, 4, 12 NMOL IN 100 ML ACETONE ONCE, Doses [Promoter]: 1.62 NMOL IN 100 ML ACETONE 2/WK FOR 28 WK BEGINNING 1 WK POST CARCINOGEN DOSE (STUDY DURATION: 30 WK), Strain/Sex: SENCAR/FEMALE): skin: tumor | outcome (Carcinogen: (+/-)-TRANS-1,2-DIHYDRO-1,2-DIHYDROXY-5-METHYLCHRYSENE, 96741-20-7, Doses [Carcinogen]: 33, 100 NMOL IN 0.1 ML ACETONE ONCE, Doses [Promoter]: 2.5 UG IN 0.1 ML ACETONE 3/WK FOR 25 WK BEGINNING 10 D POST INITIATION (STUDY DURATION: 27 WK), Strain/Sex: CD-1/FEMALE): skin: tumors | outcome (Carcinogen: (+/-)-TRANS-1,2-DIHYDROXY-ANTI-3,4-EPOXY-1,2,3,4-TETRAHYDRO-5-METHYLCHRYSENE, 96790-39-5, Doses [Carcinogen]: 33, 100 NMOL IN 0.1 ML ACETONE ONCE, Doses [Promoter]: 2.5 UG IN 0.1 ML ACETONE 3/WK FOR 25 WK BEGINNING 10 D POST INITIATION (STUDY DURATION: 27 WK), Strain/Sex: CD-1/FEMALE): skin: tumors | outcome (Carcinogen: (+/-)-TRANS-7,8-DIHYDRO-7,8-DIHYDROXY-5-METHYLCHRYSENE, 96741-21-8, Doses [Carcinogen]: 33, 100 NMOL IN 0.1 ML ACETONE ONCE, Doses [Promoter]: 2.5 UG IN 0.1 ML ACETONE 3/WK FOR 25 WK BEGINNING 10 D POST INITIATION (STUDY DURATION: 27 WK), Strain/Sex: CD-1/FEMALE): skin: tumors | outcome (Carcinogen: ANTI-1,2-DIHYDROXY-3,4-EPOXY-1,2,3,4-TETRAHYDRO-5,6-DIMETHYLCHRYSENE, 139347-89-0, Doses [Carcinogen]: 33, 100, 400 NMOL IN 0.1 ML ACETONE ONCE, Doses [Carcinogen]: 33, 100, 400 NMOL IN 0.1 ML ACETONE ONCE, Doses [Promoter]: 0, 2.5 UG IN 0.1 ML ACETONE 3/WK FOR 20 WK BEGINNING 10 D POST CARCINOGEN DOSE (STUDY DURATION: 20 WK), Strain/Sex: CD-1/FEMALE): skin: tumor | outcome (Carcinogen: ANTI-4,3-DIHYDROXY-2,1-EPOXY-4,3,2,1-TETRAHYDROBENZO[C]PHENANTHRENE, 75443-72-0, Doses [Carcinogen]: 100, 400 NMOL IN 0.1 ML ACETONE ONCE, Doses [Promoter]: 0, 2.5 UG IN 0.1 ML ACETONE 3/WK FOR 20 WK BEGINNING 10 D POST CARCINOGEN DOSE (STUDY DURATION: 20 WK), Strain/Sex: CD-1/FEMALE): skin: tumor | outcome (Carcinogen: BENZO[A]PYRENE, 50-32-8, Doses [Carcinogen]: 0, 2.52, 12.6, 50.5, 101 UG IN ACETONE ONCE, Doses [Carcinogen]: 0, 2.52, 12.6, 50.5, 101 UG IN ACETONE ONCE, Doses [Promoter]: 0, 2 UG IN ACETONE 2/WK FOR 52 WK (STUDY DURATION: 1 YR), Strain/Sex: SENCAR/FEMALE): skin: papilloma, carcinoma | outcome (Carcinogen: BENZO[A]PYRENE, 50-32-8, Doses [Carcinogen]: 0, 2.52, 12.6, 50.5, 101 UG IN ACETONE ONCE, Doses [Carcinogen]: 0, 2.52, 12.6, 50.5, 101 UG IN ACETONE ONCE, Doses [Promoter]: 0, 2 UG IN ACETONE 2/WK FOR 52 WK (STUDY DURATION: 1 YR), Strain/Sex: SENCAR/MALE): skin: papilloma, carcinoma | outcome (Carcinogen: BENZO[A]PYRENE, 50-32-8, Doses [Carcinogen]: 20, 100 NMOL IN 100 µL ACETONE ONCE, Doses [Promoter]: 3.24 NMOL/100 µL ACETONE 2/WK BEGINNING 2 WK POST CARCINOGEN DOSE AND CONTINUING FOR 24 WK (STUDY DURATION: 27 WK), Strain/Sex: SENCAR/FEMALE): skin: tumor | outcome (Carcinogen: BENZO[A]PYRENE, 50-32-8, Doses [Carcinogen]: 33.3, 100, 300 NMOL IN 100 µL ACETONE ONCE, Doses [Carcinogen]: 33.3, 100, 300 NMOL IN 100 µL ACETONE ONCE, Doses [Promoter]: 3.24 NMOL/100 µL ACETONE ONCE 1 WK POST CARCINOGEN DOSE THEN 2/WK BEGINNING 3 WK LATER AND CONTINUING FOR 11 WK (STUDY D, Strain/Sex: SENCAR/FEMALE): skin: tumor
